Laboratory results reported in publication PMC10267539 (EJNMMI Radiopharmacy and Chemistry, 2023).

Assays:
[1] = 37 °C, after 6 h
Description: (§1) The stability of the radiolabeled peptide in human plasma and normal saline as well as partition coefficient (LogP) was determined. The effect of the peptide on platelet aggregation and the percent of binding radiopeptide to fibrin were studied.

[2] = target: rat cholecystokinin-2 receptor (CCK2R) (rat) (UniProt P30553); test: radioligand binding
[3] = target: human cholecystokinin-2 receptor (CCK2R) (human) (UniProt P32239); test: radioligand binding
CXCR4 [4] = target: CXCR4 (UniProt P61073); test: competitive binding assay on cells with a fluorescent ligand
[5] = target: glucagon-like peptide-1 (GLP-1) receptor (UniProt P43220); test: competitive binding assay on cells
glucagon-like peptide-1 (GLP-1) receptor, sequence (P43220 24-463): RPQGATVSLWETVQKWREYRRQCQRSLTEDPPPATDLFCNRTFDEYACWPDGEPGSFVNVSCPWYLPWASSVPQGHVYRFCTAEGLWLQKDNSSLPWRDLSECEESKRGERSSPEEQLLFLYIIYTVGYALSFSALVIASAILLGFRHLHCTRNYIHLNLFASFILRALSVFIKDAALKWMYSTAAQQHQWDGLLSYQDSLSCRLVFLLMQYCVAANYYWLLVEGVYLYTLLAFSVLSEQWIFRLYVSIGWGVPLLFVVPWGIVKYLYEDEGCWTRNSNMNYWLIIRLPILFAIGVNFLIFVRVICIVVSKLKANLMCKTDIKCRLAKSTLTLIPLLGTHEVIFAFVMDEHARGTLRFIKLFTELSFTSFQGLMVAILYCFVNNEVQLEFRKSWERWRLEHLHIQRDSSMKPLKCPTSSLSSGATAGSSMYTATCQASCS

plaque inflammation = test: F-18 FDG PET of plaque inflammation (carotid TBR); format: in vivo, human
Description: Materials and methods: We retrospectively analyzed F-18 FDG PET scans of patients treated with I-131 rituximab for the first time for relapsed or refractory CD20(+) B cell lymphoma. F-18 FDG PET scans were performed before (PET1), 5 days (PET2), and 1 m (PET3) after the administration of I-131 rituximab. […] TBRs measured in PET1, PET2, and PET3 were designated as TBR1, TBR2, and TBR3, respectively. Statistical analysis was performed using the Wilcoxon-test for comparison between the groups. In addition, we divided patients into 2 groups (patients with higher TBR1 versus equal to or lower TBR1 than the median value of TBR1) and compared TBRs on each PET dataset.

HER2 = target: T1, HER2 (Homo sapiens, UniProt P04626); test: Binding by flow cytometry; conditions: BT-474 / MCF-7, cell line not stated
T1 construct: flow cytometry in BT-474 (high HER2 density) and MCF-7 (low HER2 density); endogenous in cells; host or cells: BT-474 and MCF-7 cells

fibrin = fibrin (UniProt P02679); test: binding of the radiolabelled pept
fibrin, sequence (P02679 whole entry, looked up): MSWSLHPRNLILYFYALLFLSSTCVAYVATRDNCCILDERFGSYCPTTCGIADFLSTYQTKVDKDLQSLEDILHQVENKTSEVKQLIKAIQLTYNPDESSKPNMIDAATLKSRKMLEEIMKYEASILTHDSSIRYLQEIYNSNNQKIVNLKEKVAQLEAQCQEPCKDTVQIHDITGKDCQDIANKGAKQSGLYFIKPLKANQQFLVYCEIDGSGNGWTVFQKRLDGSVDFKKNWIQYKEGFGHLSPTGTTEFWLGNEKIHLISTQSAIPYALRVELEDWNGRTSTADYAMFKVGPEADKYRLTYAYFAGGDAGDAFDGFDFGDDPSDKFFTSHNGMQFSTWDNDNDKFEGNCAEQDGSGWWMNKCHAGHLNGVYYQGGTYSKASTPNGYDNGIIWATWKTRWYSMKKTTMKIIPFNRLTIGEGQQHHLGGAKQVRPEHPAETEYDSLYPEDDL

CXCR4 [6] = target: CXCR4 (UniProt P61073); test: radioligand binding
BON-1.SSTR2 = test: Clonogenic assay; format: cell-based
Description: (§2) The in vitro stability of the corresponding radiocomplexes was determined in PBS and human serum at 37 °C. […] Cell viability (10^4 cells/well) and clonogenic assay (10^3 cells/well) was performed with [^213Bi]Bi-3p-C-NETA-TATE using the same cell line.

[7] = In vitro stability in PBS and serum; format: in vitro ADME; conditions: 37 °C, after 5 h, starting radiochemical purity 94.3%
Description: as §2

[8] = system: SSTR2 expressing cells (BON-1.SSTR2); test: Cell binding and internalization; format: cell-based; conditions: BON-1.SSTR2, 60 min incubation
Description: as §2

[9] = based on toxicity study in Wistar rats
Description: For DOTA-MGS5, a toxicity study in Wistar rats was carried out in a GLP-compliant laboratory.

CXCR4, sequence (P61073 whole entry): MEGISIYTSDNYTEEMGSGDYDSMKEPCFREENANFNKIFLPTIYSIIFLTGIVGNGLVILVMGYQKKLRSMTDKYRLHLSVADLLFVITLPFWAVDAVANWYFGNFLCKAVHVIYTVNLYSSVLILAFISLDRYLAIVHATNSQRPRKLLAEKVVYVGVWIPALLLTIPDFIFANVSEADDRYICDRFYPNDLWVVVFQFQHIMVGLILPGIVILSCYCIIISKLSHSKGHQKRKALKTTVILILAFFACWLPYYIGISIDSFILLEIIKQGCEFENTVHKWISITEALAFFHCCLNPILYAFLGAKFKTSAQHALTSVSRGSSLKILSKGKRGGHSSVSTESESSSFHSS
rat cholecystokinin-2 receptor (CCK2R) (rat), sequence (P30553 whole entry): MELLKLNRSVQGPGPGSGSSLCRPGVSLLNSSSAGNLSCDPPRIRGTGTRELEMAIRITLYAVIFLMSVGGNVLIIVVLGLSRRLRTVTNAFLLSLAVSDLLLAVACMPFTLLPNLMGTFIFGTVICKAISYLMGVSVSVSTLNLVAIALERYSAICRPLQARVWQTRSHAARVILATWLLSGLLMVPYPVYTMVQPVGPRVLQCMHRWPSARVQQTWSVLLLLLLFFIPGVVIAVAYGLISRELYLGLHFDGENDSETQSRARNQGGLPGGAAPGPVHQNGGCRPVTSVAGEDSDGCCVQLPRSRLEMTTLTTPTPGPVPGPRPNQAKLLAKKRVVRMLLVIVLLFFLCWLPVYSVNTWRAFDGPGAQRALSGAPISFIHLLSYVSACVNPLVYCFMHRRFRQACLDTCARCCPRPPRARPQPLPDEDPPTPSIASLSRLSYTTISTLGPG
human cholecystokinin-2 receptor (CCK2R) (human), sequence (P32239 whole entry): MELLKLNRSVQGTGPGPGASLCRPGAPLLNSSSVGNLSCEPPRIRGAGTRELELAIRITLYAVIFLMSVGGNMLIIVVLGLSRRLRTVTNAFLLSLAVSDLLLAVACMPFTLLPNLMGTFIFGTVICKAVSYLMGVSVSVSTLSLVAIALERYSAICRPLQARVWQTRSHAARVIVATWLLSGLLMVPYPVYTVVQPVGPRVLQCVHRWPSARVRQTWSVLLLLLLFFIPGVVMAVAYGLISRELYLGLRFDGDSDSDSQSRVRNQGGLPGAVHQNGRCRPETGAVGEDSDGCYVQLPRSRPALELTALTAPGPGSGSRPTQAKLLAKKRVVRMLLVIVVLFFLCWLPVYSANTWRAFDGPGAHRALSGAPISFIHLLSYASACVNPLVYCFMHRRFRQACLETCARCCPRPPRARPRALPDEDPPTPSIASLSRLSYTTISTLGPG
Description for platelet aggregation: as §1

HYNIC-Gly-Pro-Lys-Gly-Ala-Ala-Asp [HYNIC-GPLGAAD]
stability in human plasma [1]: 95%
effect on platelet aggregation (platelet aggregation): no effect on platelet aggregation

[^177Lu]Lu-DOTA-MGS5 (peptide)
other [2]: 48.6%
other [3]: 68%

AlF-NOTA-(2×)DV1(c11sc12s) (peptide)
IC50 (CXCR4 [4]): 1.3 nM

DOTA-MI-exendin-4 (from UniProt P26349 48-87) (peptide)
affinity [5]: < 11 nM

I-131 rituximab: radioimmunotherapy for CD20(+) B cell lymphoma
TBR1 (plaque inflammation; all 32 patients, PET1 before I-131 rituximab, mean and SD): 1.49 ± 0.28
TBR2 (plaque inflammation; all 32 patients, PET2 5 days after, mean and SD, P = 0.008 vs TBR1): 1.36 ± 0.21
TBR3 (plaque inflammation; all 32 patients, PET3 1 m after, mean and SD, P = 0.002 vs TBR1): 1.35 ± 0.19
mean TBR (plaque inflammation; patients with higher TBR1 (n = 16), PET1): 1.69
mean TBR (plaque inflammation; patients with higher TBR1 (n = 16), PET2, P = 0.001): 1.46
mean TBR (plaque inflammation; patients with higher TBR1 (n = 16), PET3, P < 0.001): 1.42
mean TBR (plaque inflammation; patients with lower TBR1 (n = 16), PET1): 1.29
mean TBR (plaque inflammation; patients with lower TBR1 (n = 16), PET2): 1.26
mean TBR (plaque inflammation; patients with lower TBR1 (n = 16), PET3): 1.29

NOTA-rituximab: control IgG
KD (HER2): no binding

NOTA-exendin-4 (from UniProt P26349 48-87) (peptide; other documents disagree on this pair)
affinity [5]: < 11 nM

HYNIC-Gly-Pro-Lys-Gly-Ala-Ala-Asp peptide
other (fibrin): 71.4%

AlF-NOTA-DV1-k-(DV3) (peptide)
total-bound fraction (u87.CXCR4 cells) (CXCR4 [6]): 6%
IC50 (CXCR4 [4]): 5.3 nM

C[C@@H](O)[C@H](NC(=O)[C@@H]1CSSC[C@H](NC(=O)[C@@H](Cc2ccccc2)NC(=S)Nc2ccc(CCCC(CN3CCN(CC(=O)O)CCN(CC(=O)O)CC3)N(CC(=O)O)CC(=O)O)cc2)C(=O)N[C@@H](Cc2ccc(O)cc2)C(=O)N[C@H](Cc2c[nH]c3ccccc23)C(=O)N[C@@H](CCCCN)C(=O)N[C@@H]([C@@H](C)O)C(=O)N1)C(=O)O (stereo partly shown) [[^213Bi]Bi-3p-C-NETA-TATE, metal not drawn]
activity required for cell surviving fraction of 0.1 (SF0.1) (BON-1.SSTR2): 0.1 MBq
intact radiocomplex ([7]; PBS): 90%
remaining at 5 h ([7]; human serum, read-out: intact radiocomplex): 90%
cell binding [8]: 3.3 ± 0.5%
internalized share of cell binding [8]: 39.2%

CCCC[C@@H](C(=O)N[C@@H](CC(=O)O)C(=O)N[C@@H](Cc1cccc2ccccc12)C(N)=O)N(C)C(=O)[C@H](Cc1c[nH]c2ccccc12)NC(=O)CNC(=O)[C@H](Cc1ccc(O)cc1)NC(=O)[C@H](C)NC(=O)[C@@H](CCC(=O)O)NC(=O)CN1CCN(CC(=O)O)CCN(CC(=O)O)CCN(CC(=O)O)CC1 [DOTA-MGS5]
maximum dose defined for the first therapeutic use [9]: 100 µg

DOTA-exendin-4 (from UniProt P26349 48-87) (peptide; other documents disagree on this pair)
affinity [5]: < 11 nM

NOTA-MI-exendin-4 (from UniProt P26349 48-87) (peptide)
affinity [5]: < 11 nM
